Data on eight compounds can be found in patent publication US20020037931A1, “Substituted nitrated catechols, their use in the treatment of some central and peripheral nervous system disorders and pharmaceutical compositions containing them” (priority 2000, published 2002).

The subject of test [1] is COMT. Put plainly: COMT activity (methylation of adrenaline to metanephrine) in rat liver homogenates. The following applies: rat liver homogenate; test compound 3 μM; means±SEM, n=4-8. Format: biochemical.
Test [2] relates to COMT. Put plainly: COMT activity (methylation of adrenaline to metanephrine) in rat brain homogenates. Format: biochemical. The following applies: rat brain homogenate; test compound 100 nM; means±SEM, n=4-8.
Test [3] concerns the target T1, COMT (Homo sapiens, UniProt P21964).
T1 construct: COMT activity was evaluated in cell monolayers by the ability to methylate adrenaline; host or cells: SK-N-SH cells
T1 sequence (P21964 1-271): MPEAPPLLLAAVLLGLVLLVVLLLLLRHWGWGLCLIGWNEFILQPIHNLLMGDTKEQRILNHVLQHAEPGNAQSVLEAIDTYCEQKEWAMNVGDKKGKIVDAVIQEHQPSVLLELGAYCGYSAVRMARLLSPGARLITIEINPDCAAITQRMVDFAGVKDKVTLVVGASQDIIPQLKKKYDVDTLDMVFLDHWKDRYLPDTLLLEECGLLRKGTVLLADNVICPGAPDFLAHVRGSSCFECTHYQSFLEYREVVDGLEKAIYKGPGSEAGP
Put plainly: COMT activity in intact SK-N-SH cell monolayers. The following applies: SK-N-SH cells; test compound 100 nM; means±SEM, n=4-8. The format is cell-based.

For test [4], the system named is COMT. Put plainly: Ex vivo liver COMT activity after administration by gastric tube. Format: in vivo. The conditions noted are these: rat liver homogenate.
Test [5] relates to COMT. Put plainly: Ex vivo brain COMT activity after administration by gastric tube. The format is in vivo, rat. The following applies: for COMT activity (% of control), Brain: rat brain homogenate; for inhibitory profile brain COMT versus liver COMT (in words) / inhibition of brain COMT (in words): after oral administration; for inhibitory profile brain COMT versus liver COMT (in words) / access to the brain / activity in the periphery (in words) / inhibition of brain COMT (in words): rat; for inhibitory profile brain COMT versus liver COMT (in words): brain compared with liver; for access to the brain / activity in the periphery (in words): conclusion from ex vivo COMT inhibition.

The mark [6] stands for this setting: 0.5 h after administration by gastric tube.
The mark [7] stands for this setting: 1 h after administration by gastric tube.
Setting [8] is: 3 h after administration by gastric tube.
[9] abbreviates: 6 h after administration by gastric tube.
The mark [10] stands for this setting: 9 h after administration by gastric tube.

Turning to `O=C(c1ccccc1)c1ccc(O)c(O)c1[N+](=O)[O-]` [Compound 5, (3,4-Dihydroxy-2-nitro-phenyl)-phenyl-methanone], the “COMT activity, Liver (% of control)” value in the test with COMT [1] is listed as 0.3 ± 0.1 % of control. The “COMT activity, Brain (% of control)” value in the test on COMT [2] was 6 ± 1 % of control. Besides, the “COMT activity, SK-N-SH (% of control)” value at COMT [3] was 2 ± 0 % of control. The “COMT activity (% of control), Liver” value in the test on COMT [4] (setting [6]) is 2.1 ± 0.5 % of control; with COMT [4] (setting [7]) it was 26.5 ± 1.3 % of control; in the test on COMT [4] (setting [8]), 52.1 ± 2.6 % of control; in the test with COMT [4] (setting [9]), 79.0 ± 14.8 % of control; in the test with COMT [4] (setting [10]), 108.9 % of control. The “COMT activity (% of control), Brain” value is reported as 12.2 ± 0.3 % of control in the test with COMT [5] (setting [6]); 25.5 ± 1.8 % of control with COMT [5] (setting [7]); 52.2 ± 2.3 % of control with COMT [5] (setting [8]); 92.5 ± 7.9 % of control with COMT [5] (setting [9]); 102.3 % of control in the test with COMT [5] (setting [10]). For the same compound, the “inhibitory profile brain COMT versus liver COMT (in words)” value in the test with COMT [5] was “much more potent as a peripheral COMT inhibitor than in brain”. In addition, the “access to the brain / activity in the periphery (in words)” value (from here on “access to the brain / activity”) in the test on COMT [5] is reported as “limited access to the brain”.
With `CCCC(=O)Oc1ccc(C(=O)c2ccccc2)c([N+](=O)[O-])c1OC(=O)CCC` [Compound 20, Butyric Acid, 3-Benzoyl-6-butyryloxy-2-nitro-phenyl Ester], in the test with COMT [1], the “COMT activity, Liver (% of control)” value is reported as 0.6 ± 0.0 % of control. The “COMT activity, Brain (% of control)” value in the test on COMT [2] was 3 ± 0 % of control. Also, the “COMT activity, SK-N-SH (% of control)” value at COMT [3] is on record as 0 ± 0 % of control. The “COMT activity (% of control), Liver” value was 57.9 ± 4.7 % of control in the test with COMT [4] (setting [6]); 64.4 ± 5.0 % of control with COMT [4] (setting [7]); 66.5 ± 7.8 % of control with COMT [4] (setting [8]); 94.5 ± 0.3 % of control in the test with COMT [4] (setting [9]); 110.1 % of control with COMT [4] (setting [10]). Further, the “COMT activity (% of control), Brain” value in the test with COMT [5] (setting [6]) is reported as 25.8 ± 4.3 % of control; in the test with COMT [5] (setting [7]) it was 31.4 ± 3.0 % of control; in the test with COMT [5] (setting [8]) it was 49.4 ± 5.3 % of control; in the test on COMT [5] (setting [9]), 81.3 ± 3.7 % of control; in the test with COMT [5] (setting [10]) it was 72.8 % of control. In addition, in the test on COMT [5], the “inhibition of brain COMT (in words)” value is recorded as “potent inhibitors of brain COMT”. Besides, the “inhibitory profile brain COMT versus liver COMT (in words)” value in the test with COMT [5] is recorded as “much more potent upon brain COMT than liver COMT”. Moreover, in the test with COMT [5], the “access to the brain / activity” value was “enhanced access to the brain and limited activity in the periphery”.
With `O=C(Cc1ccccc1)c1ccc(O)c(O)c1[N+](=O)[O-]` [Compound 24, 1-(3,4-Dihydroxy-2-nitro-phenyl)-2-phenyl ethanone], the “COMT activity, Liver (% of control)” value in the test on COMT [1] was 0.7 ± 0.0 % of control. For the same compound, the “COMT activity, Brain (% of control)” value with COMT [2] was 7 ± 1 % of control. Besides, the “COMT activity, SK-N-SH (% of control)” value at COMT [3] is recorded as 24 ± 1 % of control. Besides, the “COMT activity (% of control), Liver” value in the test on COMT [4] (setting [6]) is recorded as 6.2 ± 0.8 % of control; in the test on COMT [4] (setting [7]), 8.4 ± 1.6 % of control; in the test on COMT [4] (setting [8]), 61.9 ± 10.8 % of control; in the test with COMT [4] (setting [9]) it was 91.6 ± 8.8 % of control; with COMT [4] (setting [10]), 125.9 % of control. Further, the “COMT activity (% of control), Brain” value with COMT [5] (setting [6]) is on record as 18.7 ± 1.6 % of control; in the test with COMT [5] (setting [7]) it was 18.7 ± 0.6 % of control; with COMT [5] (setting [8]), 37.0 ± 5.9 % of control; in the test with COMT [5] (setting [9]), 64.8 ± 3.7 % of control; in the test with COMT [5] (setting [10]) it was 98.4 % of control. In the test with COMT [5], the “inhibition of brain COMT (in words)” value is “potent inhibitors of brain COMT”. Further, the “access to the brain / activity” value in the test on COMT [5] is “limited access to the brain”.
For `CCCC(=O)Oc1ccc(C(=O)Cc2ccccc2)c([N+](=O)[O-])c1OC(=O)CCC` [Compound 47, Butyric acid, 6-butyryloxy-2-nitro-3-phenylacetyl-phenyl ester], in the test on COMT [1], the “COMT activity, Liver (% of control)” value is 0.6 ± 0.2 % of control. The “COMT activity, Brain (% of control)” value in the test with COMT [2] is on record as 0 ± 0 % of control. The “COMT activity, SK-N-SH (% of control)” value at COMT [3] is given as 1 ± 1 % of control.
The like results for `CCOC(=O)Oc1ccc(C(=O)Cc2ccccc2)c([N+](=O)[O-])c1OC(=O)OCC` [Compound 48, Carbonic acid, 2-ethoxycarbonyloxy-3-nitro-4-phenylacetyl-phenyl ester ethyl ester] were, in that order, 0.5 ± 0.1 % of control, 0 ± 0 % of control and 7 ± 3 % of control.
Take `CC(=O)Oc1ccc(C(=O)CCCc2ccccc2)c([N+](=O)[O-])c1OC(C)=O` [Compound 49, Acetic acid, 6-acetoxy-2-nitro-3-(4-phenyl-butyryl)-phenyl ester]: in the test on COMT [1], the “COMT activity, Liver (% of control)” value is 1.4 ± 0.8 % of control. In addition, in the test on COMT [2], the “COMT activity, Brain (% of control)” value was 0 ± 0 % of control. Also, the “COMT activity, SK-N-SH (% of control)” value on COMT [3] is 1 ± 0 % of control.
On to `CCCC(=O)Oc1ccc(C(=O)CCCc2ccccc2)c([N+](=O)[O-])c1OC(C)=O` [Compound 50, Acetic acid, 6-butyryloxy-2-nitro-3-(4-phenyl-butyryl)-phenyl ester], for which the “COMT activity, Liver (% of control)” value in the test on COMT [1] was 0.6 ± 0.5 % of control. Besides, the “COMT activity, Brain (% of control)” value with COMT [2] was 0 ± 0 % of control. Further, the “COMT activity, SK-N-SH (% of control)” value at COMT [3] was 2 ± 1 % of control.
As for `CCOC(=O)Oc1ccc(C(=O)CCCc2ccccc2)c([N+](=O)[O-])c1OC(=O)OCC` [Compound 51, Carbonic acid, 2-ethoxycarbonyloxy-3-nitro-4-(4-phenyl-butyryl)-phenyl ester ethyl ester], the “COMT activity, Liver (% of control)” value with COMT [1] was 0.6 ± 0.3 % of control. In addition, the “COMT activity, Brain (% of control)” value in the test with COMT [2] was 0 ± 0 % of control. For the same compound, the “COMT activity, SK-N-SH (% of control)” value at COMT [3] is 1 ± 0 % of control.
